“Also recorded” adds a separate entry of the source.
Experiments:
pSmad1/5 = assay: Western blot of pSmad1/5 content in mouse foregut explants; type: cell-based; settings: 24 hours of treatment, DMH-1 1.5 μM vs vehicle
Description: (§1) Whole foreguts were dissected from E8.5 embryos (6-8 somite pairs) in Hank's balanced salt solution (HBSS) then explanted onto 8 μm pore size Whatman Nucleopore Track-Etch Membranes (Millipore). Explants were cultured for 2-3 days in a base medium (BGJb medium (Gibco)+10% fetal bovine serum (FBS, Sigma) and 0.2 mg/ml ascorbic acid) containing either the BMPR inhibitor DMH-1 (1.5 μM, Tocris) or DMSO as a vehicle control. Whole mount immunostaining was performed using a modification of the method of Ahnfelt-Ronne et al. (Ahnfelt-Ronne et al., 2007). The primary antibodies used were: guinea pig anti-Nkx2-1 (Seven Hill Bioreagents; 1:500), rabbit anti-Pax8 (Protein Tech; 1:500) and rat anti-Ecad (R&D; 1:2000). After staining, samples were cleared with Murray's clear (2:1 benzyl benzoate: benzyl alcohol) and imaged using a Nikon A1Rsi inverted laser confocal microscope. Imaris software was used to analyze the images. DMH-1 treated and control explants were harvested and lysed in Laemmli buffer after 24 hours of treatment. Lysates were electrophoresed on a 10-20% Tris-glycine gel under reducing conditions, Western blotted, and probed with antibodies (Cell Signaling) to detect total Smad1/5 and pSmad 1/5 content; β-actin content served as a loading control.

Xenopus embryos = assay: Xenopus whole embryo culture in pathway antagonists, in-situ hybridization for thyroid markers; type: in vivo; settings: inhibitor from stage NF13 until NF20; DMH-1 40 μM, SU5402 10 μM
Description: Xenopus embryos were generated by in vitro fertilization and assayed by in situ hybridization or confocal immunostaining as previously described (Rankin et al., 2015). Small molecule inhibitors were dissolved in DMSO according to manufacturer's instructions and added to the embryo culture saline at the following working concentrations: 10 μM SU5402 (Tocris Bioscience), 40 μM DMH-1 (Sigma), 50 μM XAV939 (Sigma) and 10 μM BMS493 (Tocris Bioscience). Foregut explants were dissected from stage NF15 and treated with Dispase (BD Pharmingen) for 15 minutes and then the mesoderm was manually removed. Foregut endoderm was then cultured in 0.5× Modified Barth's Saline with 0.1% BSA with or without 500 ng/ml rhFGF2 and 50 ng/ml rhBMP4 (R&D systems).

mouse foregut explants = assay: Mouse E8.5 whole foregut explant culture, whole mount immunostaining for Nkx2-1 and Pax8; type: cell-based; settings: 6-8 somite foreguts, 2-3 days, DMH-1 1.5 μM vs DMSO
Description: as §1

hypothyroid mice = assay: TSH response test; type: in vivo, mouse; settings: T3 4 μg per 100 g body weight i.p. daily for 4 days; all groups; data not shown
Description: To suppress endogenous production of T4 and TSH, T3 (4 μg per 100 g body weight (BW); Sigma T6397) was given daily by intraperitoneal injection for 4 days. 15 hours after the last injection, blood was taken from the submandibular vein to measure T4 and TSH after which a single injection of highly purified bTSH (Los Angeles Biomedical Research Institute, National Hormone and Peptide Program. Torrance, Calif.) at 30 mU per 100 g BW was given. 3 hours later blood samples were taken to assess the increase of total T4. Five mice per group (positive control group, Sham, and D30 ESCs recipients) were included in the experiment.

[1] = system: ESC-derived definitive endoderm; assay: Nkx2-1+ endoderm induction from ESC-derived endoderm, specification media day 6-14, flow cytometry on day 14; type: cell-based, mouse; settings: sequential withdrawal of each individual factor from the WFKBE+2 cocktail
Description: Definitive endoderm induction was performed in complete serum-free differentiation medium (cSFDM) consisting of 75% IMDM (Invitrogen 12440) and 25% Ham's Modified F12 medium (Cellgro 10-080-CV) supplemented with N2 and B27+RA (Invitrogen 17502-048 and 17504-44), 0.05% BSA (Invitrogen 15260-037), […] L-glutamine (Invitrogen 25030-081), 0.05 mg/ml ascorbic acid (Sigma A4544) and 4.5×10^-4M MTG (Sigma M6145) as previously described (Gouon-Evans et al., 2006, Longmire et al., 2012). Undifferentiated ESCs were trypsinized to form a single cell suspension and plated onto Petri dishes (500,000 cells/10 cm dish) resulting in the formation of embryoid bodies (EBs) over 60 hours. EBs were dissociated by trypsinization (0.05%, 1 min, 37° C.) and plated as single cells into cSFDM supplemented with 50 ng/ml Activin A (R&D systems 338-AC) for an additional 60 hours. For Anteriorization of endoderm, on day 5 (120 total hours of differentiation) EBs were plated onto p100 Petri dishes in Nog/SB media: cSFDM supplemented with 100 ng/ml mNoggin (R&D 1967-NG) and 10 μM SB431542 (Sigma S4317) as previously described (Longmire et al., 2012). For Nkx2-1+ endoderm induction, EBs were plated on gelatin coated 6 well plates at the equivalent density of 200,000 cells/well in Specification media: cSFDM supplemented as stated in the text with 100 ng/ml mWnt3a (R&D 1324-WN), 10 ng/ml hFGF10 (R&D 345-FG), 10 ng/ml mKGF (R&D 5028-KG), 10 ng/ml mBMP4 (R&D 5020-BP), 20 ng/ml hEGF (R&D 236-EG), 250 ng/ml mFGF2 (R&D 3139-FB) and 100 ng/ml Heparin Sodium Salt (Sigma […]2-1mCherry+ cells, or the populations otherwise indicated in the text were sorted using MoFlo or […] II SORP high speed cell sorters and replated onto gelatin-coated 24 well plates on day 12-14 at a density of 5×10^4 cells/well. Where indicated in the text, small molecule inhibitors were dissolved in DMSO according to manufacturer's instructions and added to the culture media from day 6 to 14 at the following working concentrations: Dorsomorphin 4 μM (Sigma P5499), PD98059 20 μM, SB203580 10 μM (both from Cell Signaling Technology, PHZ1164 and 5633), and LY294002 […] (Promega V1201).

[2] = system: Nkx2-1GFP+; Pax8tdTomato trace+ iPSC-derived cells; assay: Lineage specification of bifluorescent reporter iPSC line by day 14; type: cell-based, mouse; settings: factor withdrawn or removed from the Nkx2-1 induction media, data not shown
[3] = system: ESC-derived Nkx2-1+ cells; assay: Thyroid marker mRNA by real time RT-PCR on Day 26 after outgrowth of day 14 sorted Nkx2-1+ cells; type: cell-based, mouse; settings: growth factors in specification media day 6 to 14; sorted day 14, replated until day 26
Description: For Anteriorization of endoderm, on day 5 (120 total hours of differentiation) EBs were plated onto p100 Petri dishes in Nog/SB media: cSFDM supplemented with 100 ng/ml mNoggin (R&D 1967-NG) and 10 μM SB431542 (Sigma S4317) as previously described (Longmire et al., 2012). For Nkx2-1+ endoderm induction, EBs were plated on gelatin coated 6 well plates at the equivalent density of 200,000 cells/well in Specification media: cSFDM supplemented as stated in the text with 100 ng/ml mWnt3a (R&D 1324-WN), 10 ng/ml hFGF10 (R&D 345-FG), 10 ng/ml mKGF (R&D 5028-KG), 10 ng/ml mBMP4 (R&D 5020-BP), 20 ng/ml hEGF (R&D 236-EG), 250 ng/ml mFGF2 (R&D 3139-FB) and 100 ng/ml Heparin Sodium Salt (Sigma […]2-1mCherry+ cells, or the populations otherwise indicated in the text were sorted using MoFlo or […] II SORP high speed cell sorters and replated onto gelatin-coated 24 well plates on day 12-14 at a density of 5×10^4 cells/well. […] Relative gene expression, normalized to 18S control, was calculated as fold change in 18S-normalized gene expression, over baseline, using the 2^(-ΔΔCT) method. […]

## CC(C)Oc1ccc(-c2cnc3c(-c4ccnc5ccccc45)cnn3c2)cc1 [DMH-1]
pSmad1/5
  phosphorylation of SMAD1/5/8, pSmad1/5 content: substantial reduction in pSmad1/5 content; also recorded: marked reduction in phosphorylation of SMAD1/5/8
Xenopus embryos
  induction of thyroid markers foxe1, nkx2-1, pax2 and hhex: abrogated induction of all four thyroid markers in the vast majority of embryos
Mouse foregut explants
  induction of Nkx2-1 and Pax8, thyroid bud formation: no thyroid bud was apparent; also recorded: blocked induction of both Nkx2-1 and Pax8

## N[C@@H](Cc1cc(I)c(Oc2ccc(O)c(I)c2)c(I)c1)C(=O)O [T3, Triiodothyronine]
Hypothyroid mice
  endogenous TSH and T4 after exogenous T3: TSH suppression and abrogated T4 secretion

## Wingless-Type MMTV Integration Site Family protein, member 3A [Wnt3a]
[1]
  Nkx2-1+ endodermal induction efficiency: dispensable for Nkx2-1 induction efficiency
[2]
  efficiency of lineage specification, percent yield of GFP+/tdTomato+ cells: no significant impact
[3]
  thyroid competence, thyroid marker mRNA on D26: does not alter thyroid lineage specification
